Experiment in all cases: carrageenan-induced rat's paw edema
Common to all, as to type: in vivo, Male Sprague Dawley rats
In general terms: The carrageenan paw model is a standard test of acute inflammation.

In assay [1] the test system is carrageenan-induced rat's paw edema. Further details: key: IS: insignificant result; ***: highly significant result. On the procedure: (§1) The activity of the compounds of the invention was evaluated in vivo on a model of carrageenan-induced rat's paw edema.
(§2) Male Sprague Dawley rats (Charles River) weighing 170 to 180 g on the day of the experiment are kept indoors for 5 to 8 days under animal husbandry conditions and are starved for 18 hours on a mesh floor before and during the experiment. The groups are constituted by 8 animals. The products are administered by intraperitoneal route (ip, 2 ml/kg), 30 minutes before the 1% Carrageenan is injected into the sole of the rats' rear right paw. The volume of the paw corresponding to the edema is measured using a water plethysmometer (Ugo Basile, APELEX) before the injection of carrageenan (t0) and 3 hours after the injection. The volume of the paw allows determination of the % of inflammation ((volume of the paw at time t after carrageenan−volume of the same paw at time to before injection of the products/volume of the paw at time t0)×100). […] This effectiveness is determined statistically by a Student test.

The test system is the same in assay [2]. To be noted: for % inflammation: 30 minutes before 1% carrageenan, paw volume 3 hours after injection, 8 rats; for protection of the animal from the edema caused by carrageenan (in words): ip, doses of the groups of the respective example. On the procedure: as §1, §2
The test system is the same in assay [3]. Further details: key: IS: Insignificant result; *: significant result. To be noted: Example 4; 30 mg/kg ip. On the procedure: as §1, §2

Values joined by “and” are separate entries in the source; they are usually repeats but may differ in a detail not shown here. Equal values may be shown once.

Turning to `CCN(CC)CCCC(C)Nc1c2ccc(Cl)cc2nc2ccc(OC)cc12` (stereo not drawn) [mepacrine], the “significance of % inflammation (Student test)” value (“significance of % inflammation” below) in assay [1] (Example 1, 30 mg/kg ip) is listed as “IS”; in assay [1] (Example 2, 30 mg/kg ip), “IS”; in assay [3], “IS”. For the same compound, the “% inflammation” value in assay [2] (30 mg/kg ip) was 64.5 ± 3.7% and 53.9 ± 3.2% and 51.9 ± 2.7%. Also, the “protection of the animal from the edema caused by carrageenan (in words)” value (“protection of the animal” below) in assay [2] is “inactive”.

Consider `COc1cccc2c1cc([N+](=O)[O-])c1c(C(=O)O)cc3c(c12)OCO3` [aristolochic acid], for which the “significance of % inflammation” value in assay [1] (Example 3, 30 mg/kg ip) is “IS”. The “% inflammation” value in assay [2] (30 mg/kg ip) amounted to 68 ± 5.1%. For the same compound, the “protection of the animal” value in assay [2] is “inactive”.

Turning to `O=[N+]([O-])c1cccc2cn[nH]c12` [7-nitroindazole], the “significance of % inflammation” value in assay [1] (Example 1, 25 mg/kg ip) was “IS”. For the same compound, the “% inflammation” value in assay [2] (25 mg/kg ip) was found to be 72.5 ± 16.1%. Also, the “protection of the animal” value in assay [2] is “inactive”.

As for `N=C(N)NN` [aminoguanidine], the “significance of % inflammation” value was “IS” in assay [1] (Example 2, 400 mg/kg ip) and “IS” in assay [1] (Example 3, 400 mg/kg ip). In addition, the “% inflammation” value in assay [2] (400 mg/kg ip) is 53.1 ± 3.4% and 60.7 ± 7.5%. Also, the “protection of the animal” value in assay [2] is “inactive”.

As to `CN(Cc1nc(-c2cc(C(C)(C)C)c(O)c(C(C)(C)C)c2)cs1)c1ccc(NC(=N)c2cccs2)cc1.Cl` [4-[3,5-bis(1,1-dimethylethyl)-4-hydroxyphenyl]-N-{4-[(imino(2-thienyl)methyl)amino]phenyl}-N-methyl-2-thiazolemethanamine hydrochloride], the “% inflammation” value in assay [2] (30 mg/kg ip) was determined as 52.8 ± 4.0%. Further, the “protection of the animal” value in assay [2] was “inactive”. For the same compound, the “significance of % inflammation” value in assay [3] was “IS”.

The values are drawn from US6872738B1, “Product comprising at least a no synthase inhibiting substance associated with at least a phospholipase a2 inhibiting substance” (Societe de Conseils de Recherches et D'Applications …, priority 1999, dated 2005).
